Laboratory results as given in PMC7644710, “Structural insights into the mechanism of rhodopsin phosphodiesterase” (Nature Communications, 2020).

Key:
[1] = biological target: T1, Rh-PDE-TMD (SrRh-PDE transmembrane domain) (Salpingoeca rosetta, UniProt F2TZN0); assay: X-ray crystallography, […] Å; assay type: binding; conditions: covalent; Schiff base at Lys296 in TM7; LCP crystals, pH 5.0
T1 construct: gene PTSG_02023; rhodopsin / transmembrane domain (TM0-7), residues 33-316; C-terminal GFP-His8 cut by TEV; HEK293S GnTI-; dimer

Rh-PDE wt (full-length) = biological target: T2, Rh-PDE wt (full-length) (Salpingoeca rosetta, UniProt F2TZN0); assay: HPLC hydrolysis assay, HEK293T homogenate; assay type: biochemical; conditions: 100 μM cGMP, dark or light (Y52 filter), 3 mM MgCl2, pH 6.5, room temperature
T2 construct: gene PTSG_02023; full-length, RHO 1D4 tag, ~75 kDa; human codon-optimised gene expressed in HEK293T; dimer

[2] = biological target: the molecule itself; assay: SEC-MALS; SEC-MALLS, Superdex 200 Increase 10/300, 4 °C, 20 mM Tris-HCl pH 8.0, 150 mM NaCl, 0.01% LMNG; three-detector method
[3] = biological target: the molecule itself; assay: high-speed atomic force microscopy (HS-AFM); purified full-length Rh-PDE reconstituted in an asolectin lipid bilayer, on APTES-treated mica, buffer without detergent, room temperature, tapping mode

CC1=C(/C=C/C(C)=C/C=C/C(C)=C/C=O)C(C)(C)CCC1 [all-trans retinal]
X-ray crystallography, 2.6 Å [1]: canonical rhodopsin-like topology with covalently linked retinal at Lys296 in TM7

Nc1nc2c(ncn2[C@@H]2O[C@@H]3COP(=O)(O)O[C@H]3[C@H]2O)c(=O)[nH]1 [cGMP]
HPLC hydrolysis assay, HEK293T homogenate (Rh-PDE wt (full-length)): The wild-type Rh-PDE showed three and twofold light-induced productions of cAMP and cGMP, respectively

B1: Rhodopsin phosphodiesterase transmembrane domain (Rh-PDE–TMD, residues 33–316) (domain or fragment, Salpingoeca rosetta, UniProt F2TZN0 33-316, looked up)
chain: GRGKRRAKTRNIAIASTKEVQWQGIFMIIVWLCVMGSLIFFANPEASRRVFAKFSHLQSFYGATSVAFAFATGLDILAYVNAVSDEKRVLSGILAYVDGVACISYLSMATLNLYFLVDSTQGNPVWLMRYAEWIITCPTLLYWCGLASRADRSSVSDIATADALLLAGGALSSILPSWPAFFVFAGSFATYIYVMLHMWGMFGKAMQPDFQPPPPLPRHALHLLRCEIVMSWSIFPLVEFLRRQGYIDFQVGEAMNCVADYAAKVGLAMIMVNCNLEQINALRV
modifications: covalently linked retinal at Lys296
notes: Rhodopsin phosphodiesterase (Rh-PDE) of Salpingoeca rosetta, transmembrane domain, residues 33-316; gene synthesised with human codon optimisation; TEV site between the protein and the GFP-His8 tag; also called SrRh-PDE–TMD; source: HEK293S GnTI- cells (pEG BacMam), purified (TALON, TEV cleavage, SEC) in LMNG/CHS; not shown: GFP-His8, C-terminal, cleaved
stoichiometry N [2]: 2

B2: Full-length rhodopsin phosphodiesterase from Salpingoeca rosetta (enzyme, UniProt F2TZN0 1-704, looked up)
chain: MGRKNAANSSMLQEASMNNYSMTSAASGASSSGRGKRRAKTRNIAIASTKEVQWQGIFMIIVWLCVMGSLIFFANPEASRRVFAKFSHLQSFYGATSVAFAFATGLDILAYVNAVSDEKRVLSGILAYVDGVACISYLSMATLNLYFLVDSTQGNPVWLMRYAEWIITCPTLLYWCGLASRADRSSVSDIATADALLLAGGALSSILPSWPAFFVFAGSFATYIYVMLHMWGMFGKAMQPDFQPPPPLPRHALHLLRCEIVMSWSIFPLVEFLRRQGYIDFQVGEAMNCVADYAAKVGLAMIMVNCNLEQINALRVQQMHSALTGMLKVMRKTNLSSSRMAQLDGVDDDVKSWIMNEFSGSTDGKGGDDAKAQQRARGRKGHSAAMDAEKLAASSLFTWDFDALDKSDEDLTAVCVRVFQELHVIEQFNIDEKKLRKWLQKVRTQYNKNPFHNWRHAVMVLHTTYLLLTSVATEFITEVELLAMLIAALSHDLDHNGLTNAFHINSRSELALVYNDQSVLENHHSHLAFEILLEKGCNVVENLDEDEFKRLRAVIINCILNTDMATHHTKLSKMEEVNRLGGFINLAENNDQRLFVLAVLLHTADLHNPIKPFESNKRWSARLQKEFNNQVELEAKMNLPSLPFMRGNDEESLAKGEIGFINFVVKPWHQQLSQAFPKLDFLLDTIDANLAEWKAIAESYRQMH
notes: Rhodopsin phosphodiesterase (Rh-PDE) of Salpingoeca rosetta, full length; also called full-length Rh-PDE; Rh-PDE (full); source: purified as the TMD constructs (HEK293S GnTI- cells) but in DDM/CHS; reconstituted in an asolectin lipid bilayer; not shown: GFP-His8, C-terminal, cleaved
stoichiometry N [3]: 2
